{"source": "paper PMC4981310", "about": "(PLoS Pathogens, 2016)", "key": {"GlgA [1]": {"molecular_target": "T1, GlgA (Mycobacterium tuberculosis, UniProt P9WMZ1)", "T1 construct": "gene glgM", "type": "biochemical"}, "GlgA [2]": {"molecular_target": "T1, GlgA", "assay": "biochemical"}, "GlgP": {"molecular_target": "GlgP (Mycobacterium tuberculosis, UniProt P9WMW1)", "type": "biochemical"}, "GlgA [3]": {"molecular_target": "T1, GlgA", "type": "biochemical", "remark": "listed apart in the source"}}, "data": [{"smiles": "Nc1ncnc2c1ncn2[C@@H]1O[C@H](COP(=O)(O)OP(=O)(O)O)[C@@H](O)[C@H]1O", "note": "[ADP]", "values": [{"measurement": "MS of reaction products; coupled assay of ADP release", "setting": "GlgA [1]", "result": "The next most abundant ion is consistent with the presence of the co-product, ADP"}]}, {"smiles": "O=P(O)(O)O[C@H]1O[C@H](CO)[C@@H](O)[C@H](O)[C@H]1O", "note": "[G1P, glucose 1-phosphate]", "values": [{"measurement": "Ki", "setting": "GlgA [2]", "result": "895 ± 60", "unit": "µM"}, {"measurement": "1H NMR of glycogen phosphorolysis by recombinant enzyme", "setting": "GlgP", "result": "recombinant M. tuberculosis GlgP was only capable of forming G1P from glycogen and inorganic phosphate"}]}, {"smiles": "O=P(O)(O)O[C@H]1O[C@H](CO)[C@@H](O[C@H]2O[C@H](CO)[C@@H](O)[C@H](O)[C@H]2O)[C@H](O)[C@H]1O", "note": "[M1P, α-maltose 1-phosphate]", "values": [{"measurement": "1H NMR and high resolution MS of the enzyme reaction product", "setting": "GlgA [3]", "result": "Recombinant M. tuberculosis GlgA converts ADP-glucose and G1P to M1P."}]}]}
